# Legend:
# [1] = Plasma levels of compound 17 after intravenous injection in normal rats (LC-MS/MS); assay type: in vivo, rat; settings: 3 or 10 μmol/kg intravenous injection, normal conscious male Sprague-Dawley rats, FIG. 1
# Protocol: (§1) 2-(2-Hydroxy-phenyl)-3-phenethyl-3H-quinazolin-4-one (compound 17) (3 or 10 μmol/kg) or vehicle was administered by intravenous injection over about 15 seconds to normal conscious male Sprague-Dawley rats with chronic indwelling arterial and venous catheters. Arterial blood samples were collected immediately before, and at 1, 5, 10, and 30 min after the start of the injection for measurement of the levels of parathyroid hormone (PTH), ionized calcium (Ca^2+) and compound 17 in plasma. PTH was measured using a specific rat PTH (1-84) ELISA (Immutopics, San Clemente, Calif.) and compound 17 was quantified by an LC-MS/MS method. Positive ions were generated by turbo ionspray and were subsequently fragmented by collision-induced dissociation, so that compound 17 could be detected by selected-reaction monitoring.
# [2] = tested on: parathyroid hormone (PTH); test: Plasma PTH levels after intravenous injection in normal rats (rat PTH (1-84) ELISA); assay type: in vivo; settings: 3 or 10 μmol/kg intravenous injection, normal conscious male Sprague-Dawley rats, FIG. 2
# Protocol: as §1
# ionized calcium (Ca^2+) = test: Plasma ionized calcium levels after intravenous injection in normal rats; assay type: in vivo, rat; settings: 3 or 10 μmol/kg intravenous injection, normal conscious male Sprague-Dawley rats, up to 30 min (not shown)
# Protocol: as §1
smiles,measurement,setting,value
"O=c1c2ccccc2nc(-c2ccccc2O)n1CCc1ccccc1 [compound 17, 2-(2-Hydroxy-phenyl)-3-phenethyl-3H-quinazolin-4-one]",course of plasma levels of compound after the maximum,[1],declined rapidly during the next 10-30 min
same,time after injection at which plasma levels of compound were maximal,[1],1 min
same,effect on plasma PTH levels,[2],"rapid, but transient dose-related increase"
same,time after injection at which plasma PTH levels were maximal,[2],1 min
same,time after injection by which plasma PTH levels had returned to pre-dose levels,[2],≤ 10 min
same,changes in plasma Ca^2+ levels,ionized calcium (Ca^2+),no consistent changes
